From ChEMBL document CHEMBL5038635, “Discovery of Salidroside-Derivated Glycoside Analogues as Novel Angiogenesis Agents to Treat Diabetic Hind Limb Ischemia” (J Med Chem, 2022)
Converted amounts (≈) assume the structure as drawn. The source made the active and inactive calls. The calls are words filed in the database; no cut-off is given here.

Key:
[1] = molecular target: Hypoxia-inducible factor 1-alpha (Mus musculus) (UniProt Q61221); experiment: Inhibition of HIF-1alpha in mouse C2C12 cells transfected with HRE-driven firefly luciferase gene assessed as fold change in transcriptional activity at 300 uM pretreated with compound for 12 hr followed by hypoxic condition for 24 hrs by dual luciferase reporter gene assay; format: cell-based; conditions: time 36.0 hrs
Chain of Hypoxia-inducible factor 1-alpha (Mus musculus) (Q61221 whole entry): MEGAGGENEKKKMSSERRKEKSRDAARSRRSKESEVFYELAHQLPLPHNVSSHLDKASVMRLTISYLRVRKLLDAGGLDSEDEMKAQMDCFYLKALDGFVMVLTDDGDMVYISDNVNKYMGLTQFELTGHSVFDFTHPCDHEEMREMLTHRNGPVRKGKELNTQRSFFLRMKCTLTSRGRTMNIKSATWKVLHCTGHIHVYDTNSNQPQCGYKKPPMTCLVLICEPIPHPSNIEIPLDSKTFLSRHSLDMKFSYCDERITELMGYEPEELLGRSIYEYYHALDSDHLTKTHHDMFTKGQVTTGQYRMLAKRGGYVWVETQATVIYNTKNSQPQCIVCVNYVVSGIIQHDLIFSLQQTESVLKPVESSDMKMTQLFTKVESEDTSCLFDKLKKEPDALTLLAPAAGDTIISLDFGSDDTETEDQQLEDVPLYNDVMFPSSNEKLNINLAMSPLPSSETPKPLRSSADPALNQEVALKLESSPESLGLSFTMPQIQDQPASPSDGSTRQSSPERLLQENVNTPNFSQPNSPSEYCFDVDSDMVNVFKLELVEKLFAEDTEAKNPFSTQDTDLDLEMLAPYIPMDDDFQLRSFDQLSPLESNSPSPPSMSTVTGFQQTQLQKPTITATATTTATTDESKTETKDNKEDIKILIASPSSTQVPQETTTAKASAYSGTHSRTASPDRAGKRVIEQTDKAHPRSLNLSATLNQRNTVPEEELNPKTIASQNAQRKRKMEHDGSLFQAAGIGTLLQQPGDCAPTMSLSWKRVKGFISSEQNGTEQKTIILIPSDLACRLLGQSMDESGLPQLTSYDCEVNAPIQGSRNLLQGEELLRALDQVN

[2] = molecular target: Hypoxia-inducible factor 1-alpha (Mus musculus) (UniProt Q61221); experiment: Inhibition of HIF-1alpha in mouse C2C12 cells transfected with PDGF-B driven firefly luciferase gene assessed as transcriptional activity pretreated with compound for 12 hr followed by hypoxic condition for 24 hrs by dual luciferase reporter gene assay; format: cell-based; conditions: time 36.0 hrs
[3] = Octanol/Water partition coefficient, log P of the compound by HPLC-UV analysis
[4] = Permeability coefficient across apical to basolateral side in human Caco-2 cells by HPLC-UV analysis
[5] = Efflux ratio of Apparent permeability across basolateral to apical side over apical to basolateral side in human Caco-2 cells
[6] = Water solubility of the compound by HPLC analysis
[7] = Dissociation constant, pKa of compound by UV-visible spectrometric method; format: physicochemical
[8] = Permeability coefficient across basolateral to apical side in human Caco-2 cells by HPLC-UV analysis
C2C12 [9] = experiment: Apoptotic rate in hyperglycemia-treated mouse C2C12 cells assessed as late apoptotic cells at 15 uM by AnnexinV-FITC/PI staining based flow cytometric analysis (reference value: 10.44 %); format: functional
C2C12 [10] = experiment: Induction of proliferation of hyperglycemia-induced mouse C2C12 cell death assessed as increase in number of EdU-positive cells at 7.5 to 300 uM pretreated with compound under hyperglycemia condition for 12 hr followed by hypoxia for 24 hrs; format: functional, cell-based; conditions: dose 7.5-300 µM, time 36.0 hrs
C2C12 [11] = experiment: Induction of proliferation of hyperglycemia-induced mouse C2C12 cell apoptosis assessed as decrease in Annexin V/PI-positive cells at 15 uM pretreated with compound under hyperglycemia condition for 12 hr followed by hypoxia for 24 hrs; format: functional, cell-based; conditions: time 36.0 hrs
C2C12 [12] = experiment: Apoptotic rate in hyperglycemia-treated mouse C2C12 cells assessed as early apoptotic cells at 15 uM by AnnexinV-FITC/PI staining based flow cytometric analysis (reference value: 7.10 %); format: functional
C2C12 [13] = experiment: Angiogenic activity in mouse C2C12 cells assessed as reversal of hyperglycemia-induced reduction in total cell number at 100 uM measured after 36 hrs by EdU-incorporation assay; format: functional, cell-based
C2C12 [14] = experiment: Angiogenic activity in mouse C2C12 cells assessed as accumulation ANG1 protein expression at 300 uM by Western blot analysis; format: functional, cell-based
C2C12 [15] = experiment: Angiogenic activity in mouse C2C12 cells assessed as accumulation HIF-1alpha protein expression at 300 uM by Western blot analysis; format: functional, cell-based
C2C12 [16] = experiment: Apoptotic rate in hyperglycemia-treated mouse C2C12 cells assessed as viable cells at 30 uM by AnnexinV-FITC/PI staining based flow cytometric analysis (reference value: 81.90 %); format: functional; conditions: read-out: Activity
C2C12 [17] = experiment: Angiogenic activity in mouse C2C12 cells assessed as reversal of hyperglycemia-induced reduction in total cell number at 15 uM measured after 36 hrs by EdU-incorporation assay; format: functional, cell-based
C2C12 [18] = experiment: Apoptotic rate in hyperglycemia-treated mouse C2C12 cells assessed as necrotic cells at 15 uM by AnnexinV-FITC/PI staining based flow cytometric analysis (reference value: 0.56 %); format: functional
C2C12 [19] = experiment: Induction of proliferation of hyperglycemia-induced mouse C2C12 cell death assessed as increase in number of EdU-positive cells at 15 uM pretreated with compound under hyperglycemia condition for 12 hr followed by hypoxia for 24 hrs; format: functional, cell-based; conditions: time 36.0 hrs
C2C12 [20] = experiment: Angiogenic activity in mouse C2C12 cells assessed as accumulation PDGF-BB protein expression at 300 uM by Western blot analysis; format: functional, cell-based
C2C12 [21] = experiment: Angiogenic activity in mouse C2C12 cells assessed as accumulation VEGF-A protein expression at 300 uM by Western blot analysis; format: functional, cell-based
C2C12 [22] = experiment: Apoptotic rate in hyperglycemia-treated mouse C2C12 cells assessed as viable cells at 15 uM by AnnexinV-FITC/PI staining based flow cytometric analysis (reference value: 81.90 %); format: functional; conditions: read-out: Activity
C2C12 [23] = experiment: Apoptotic rate in hyperglycemia-treated mouse C2C12 cells assessed as early apoptotic cells at 30 uM by AnnexinV-FITC/PI staining based flow cytometric analysis (reference value: 7.10 %); format: functional
C2C12 [24] = experiment: Angiogenic activity in mouse C2C12 cells assessed as reversal of hyperglycemia-induced reduction in total cell number at 7.5 uM measured after 36 hrs by EdU-incorporation assay; format: functional, cell-based
C2C12 [25] = experiment: Apoptotic rate in hyperglycemia-treated mouse C2C12 cells assessed as late apoptotic cells at 30 uM by AnnexinV-FITC/PI staining based flow cytometric analysis (reference value: 10.44 %); format: functional
C2C12 [26] = experiment: Angiogenic activity in mouse C2C12 cells assessed as reversal of hyperglycemia-induced reduction in total cell number at 300 uM measured after 36 hrs by EdU-incorporation assay; format: functional, cell-based
C2C12 [27] = experiment: Induction of proliferation of hyperglycemia-induced mouse C2C12 cell apoptosis assessed as decrease in Annexin V/PI-positive cells at 30 uM pretreated with compound under hyperglycemia condition for 12 hr followed by hypoxia for 24 hrs; format: functional, cell-based; conditions: time 36.0 hrs
C2C12 [28] = experiment: Angiogenic activity in mouse C2C12 cells assessed as reversal of hyperglycemia-induced reduction in total cell number at 30 uM measured after 24 hrs by EdU-incorporation assay; format: functional, cell-based
C2C12 [29] = experiment: Apoptotic rate in hyperglycemia-treated mouse C2C12 cells assessed as necrotic cells at 30 uM by AnnexinV-FITC/PI staining based flow cytometric analysis (reference value: 0.56 %); format: functional

With `CC(C)(CO[C@@H]1O[C@H](CO)[C@@H](O)[C@H](O)[C@H]1O)c1ccc(O)cc1` the fold change (FC) [1] was 1.73.

Work on `OC[C@H]1O[C@@H](OCCCc2ccc(O)cc2)[C@H](O)[C@@H](O)[C@@H]1O` yielded a fold change (FC) [1] of 1.52.

In the case of `OC[C@H]1O[C@@H](Oc2ccc(Cc3ccc(O)c(O)c3)cc2)[C@H](O)[C@@H](O)[C@@H]1O`, the “HIF-1alpha inhibition call (active/inactive)” value [1] is reported as “Active”.

With `COc1ccc(-c2ccc(O[C@@H]3O[C@H](CO)[C@@H](O)[C@H](O)[C@H]3O)cc2)cc1` the inhibition [2] was “Active” and the fold change (FC) [1] was 2.5.

`COc1ccc(Cc2ccccc2O[C@@H]2O[C@H](CO)[C@@H](O)[C@H](O)[C@H]2O)cc1` [SERGLIFLOZIN A] gave a logP [3] of 1.07, a fold change (FC) [1] of 0.78 and a Papp A→B [4] of 1.75 ×10⁻⁶ cm/s. For the same compound, the efflux ratio [5] was 1.04, the solubility [6] was 6710 µg/mL (≈ 17.8 mM) and the pKa [7] was > 14. For the same compound, the Papp B→A [8] was 1.82 ×10⁻⁶ cm/s.

For `OC[C@H]1O[C@@H](OCCc2ccc(F)cc2)[C@H](O)[C@@H](O)[C@@H]1O`, the inhibition [2] was “Active” and the fold change (FC) [1] was 1.47.

With `OC[C@H]1O[C@@H](CCCc2ccc(O)cc2)[C@H](O)[C@@H](O)[C@@H]1O` the inhibition [2] was “inactive”.

`OC[C@H]1O[C@@H](Oc2ccc(Cc3ccc(O)cc3)cc2)[C@H](O)[C@@H](O)[C@@H]1O` gave a logP [3] of 0.076, a Papp A→B [4] of 1.3 ×10⁻⁶ cm/s and an efflux ratio [5] of 1.09. For the same compound, the solubility [6] was 1640 µg/mL (≈ 4.53 mM), the pKa [7] was 10.4 and the Papp B→A [8] was 1.42 ×10⁻⁶ cm/s.

`O=S1(=O)OC(c2ccc(O)cc2)(c2ccc(O)cc2)c2ccccc21` [PHENOLSULFONPHTHALEIN] showed a Papp A→B [4] of 0.35 ×10⁻⁶ cm/s.

In the case of `OC[C@H]1O[C@@H](OCC2(c3ccc(O)cc3)CCC2)[C@H](O)[C@@H](O)[C@@H]1O`, the inhibition [2] is reported as “Active” and the fold change (FC) [1] is reported as 1.63.

For `COc1ccc(C(C)(C)CO[C@@H]2O[C@H](CO)[C@@H](O)[C@H](O)[C@H]2O)cc1`, the inhibition [2] was “Active”.

In the case of `COc1ccc(-c2cccc(O[C@@H]3O[C@H](CO)[C@@H](O)[C@H](O)[C@H]3O)c2)cc1`, the inhibition [2] is reported as “Active” and the fold change (FC) [1] is reported as 2.5.

In the case of `OC[C@H]1O[C@@H](OCCc2ccccc2)[C@H](O)[C@@H](O)[C@@H]1O`, the inhibition [2] is reported as “Active” and the fold change (FC) [1] is reported as 1.76.

For `COc1ccc(Cc2ccc(O[C@@H]3O[C@H](CO)[C@@H](O)[C@H](O)[C@H]3O)cc2)cc1`, the Activity (C2C12 [9]) was 10.59%, the Activity (C2C12 [10]) was “inactive” and the logP [3] was 1.02. For the same compound, the Activity (C2C12 [11]) was “inactive”, the Activity (C2C12 [12]) was 5.4% and the Activity (C2C12 [13]) was “Active”. The inhibition (C2C12 [14]) was “Active”, the inhibition [2] was “Active” and the fold change (FC) [1] was 2.5. For the same compound, the inhibition (C2C12 [15]) was “Active”, the viability at 30 µM (C2C12 [16]) was 89.2% and the Activity (C2C12 [17]) was “Active”. The Activity (C2C12 [18]) was 0.49%, the Activity (C2C12 [19]) was “Active” and the inhibition (C2C12 [20]) was “Active”. The inhibition (C2C12 [21]) was “Active”, the viability at 15 µM (C2C12 [22]) was 83.5% and the Papp A→B [4] was 1.68 ×10⁻⁶ cm/s. For the same compound, the Activity (C2C12 [23]) was 3.21%, the Activity (C2C12 [24]) was “inactive” and the Activity (C2C12 [25]) was 7.14%. The Activity (C2C12 [26]) was “Active”, the efflux ratio [5] was 1.06 and the solubility [6] was 1320 µg/mL (≈ 3.51 mM). The Activity (C2C12 [27]) was “inactive”, the pKa [7] was > 14 and the Activity (C2C12 [28]) was “Active”. It also gave a Papp B→A [8] of 1.78 ×10⁻⁶ cm/s and an Activity (C2C12 [29]) of 0.41%.

For `COc1ccc(CCO[C@@H]2O[C@H](CO)[C@@H](O)[C@H](O)[C@H]2O)cc1`, the inhibition [2] was “Active” and the fold change (FC) [1] was 1.69.

For `C[C@H]1O[C@@H](O[C@H]2[C@@H](O)C[C@H](O[C@H]3[C@@H](O)C[C@H](O[C@H]4CC[C@@]5(C)[C@H](CC[C@@H]6[C@@H]5C[C@@H](O)[C@]5(C)[C@@H](C7=CC(=O)OC7)CC[C@]65O)C4)O[C@@H]3C)O[C@@H]2C)C[C@H](O)[C@@H]1O` [DIGOXIN], the Papp A→B [4] was 1.33 ×10⁻⁶ cm/s, the efflux ratio [5] was 11.1 and the Papp B→A [8] was 14.7 ×10⁻⁶ cm/s.
